From patent US20240247266A1, “METHODS AND COMPOSITIONS FOR TREATING AN ANGIOTENSINOGEN- (AGT-) ASSOCIATED DISORDER” (Alnylam Pharmaceuticals, Inc., priority 2021, published 2024)

What was measured:
Format in all cases: in vivo, human
[1] = system: patients with hypertension; experiment: Example 5: safety and tolerability during irbesartan co-administration; settings: add-on treatment with zilebesiran
Description: (§1) In a multicenter, randomized, double-blinded, placebo-controlled, single ascending fixed dose study to assess the safety and efficacy of AD-85481 (Zilebesiran) after a single fixed dose administration to subjects having hypertension (ClinicalTrials.gov Identifier: NCT03934307, Part A), a sub-study was performed to assess the safety and tolerability of AD-85481 (Zilebesiran) in hypertensive patients during irbesartan co-administration (NCT03934307, Part E). Briefly, all patients received an open-label single 800 mg fixed dose of AD-85481 by subcutaneous administration on Day 1. On Day 41, patients with a 24-hr mean systolic blood pressure (SBP)≥120 mmHg (N=10) proceeded to receive irbesartan (300 mg oral) once daily from Day 43 to Day 57 for 14 days (FIG. 10).
(§2) The safety and tolerability, change from baseline in serum AGT, and plasma and urine pharmacokinetic parameters were evaluated. Change from baseline in blood pressure was also assessed by 24-hour ABPM.
Safety was reported from the start of the study to Day 85. […] There was one mild SAE of acute anemia in the irbesartan add-on group, but was considered not related to study drug, which was a complication of esophagogastroduodenoscopy with biopsy performed during screening prior to dose of zilebesiran.

[2] = system: patients with hypertension; experiment: Example 5: blood pressure by 24 hour ABPM with irbesartan add-on; settings: daily add-on for 2 weeks to zilebesiran 800 mg, Day 43-57
Description: as §1, with “10). The safety and tolerability, change from baseline in serum AGT, and plasma and urine pharmacokinetic parameters were evaluated. Change from baseline in blood pressure was also assessed by 24-hour ABPM. Assessments of AD-85481 also included change from baseline in SBP and DBP determined by 24 hour ambulatory blood pressure monitoring (ABPM).” for “10).”

serum AGT = experiment: Example 5 (Part E, irbesartan co-administration): serum AGT; settings: add-on 300 mg orally daily after 800 mg AD-85481
Description: as §1, §2

CCCCC1=NC2(CCCC2)C(=O)N1Cc1ccc(-c2ccccc2-c2nnn[nH]2)cc1 [irbesartan]
changes in creatinine or potassium [1]: without clinically significant changes in creatinine or potassium | effect on systolic and diastolic BP (in words) [2]: further reduced systolic and diastolic BP | effect on serum AGT levels (serum AGT): no additional effect
